Experiments:
[1] = tested on: A375 human malignant melanoma; experiment: Cell proliferation assay, A375; type: cell-based; conditions: A-375, A375, 72h exposure, CellTiter-Glo, read-out: EC50 in the cell proliferation assay, A375 cell line
Protocol: (§1) Compounds are tested in a cell proliferation assay using the following cell lines:
(§2) A375 human malignant melanoma (ATCC)
(§3) Both cell lines are maintained in DMEM/F12 (1:1) media (Gibco) supplemented with 10% FCS at 37° C. in a 5% CO2 humidified incubator.
(§4) Cells are seeded in 96-well plates at 2,000 cells/well and after 24 hours they are exposed to different concentrations of compounds in 0.83% DMSO. Cells are grown for a further 72h, and an equal volume of CellTiter-Glo reagent (Promega) is added to each well. This lyses the cells and generates a luminescent signal proportional to the amount of ATP released (and therefore proportional to the number of cells in the well) that can be detected using a multi-well luminometer.
(§5) The EC50 is defined as the concentration at which a given compound achieves 50% inhibition of control. IC50 values are calculated using the XLfit software package (version 2.0.5).

[2] = tested on: phospho-ERK in HCT116 human colorectal carcinoma; experiment: Phospho-ERK cell-based assay, HCT116; conditions: HCT-116, HCT116, 2 h or 24 h exposure, p-ERK signal normalised to PI, read-out: EC50 in the phospho-ERK cell-based assay, HCT116 cell line
Protocol: (§6) Compounds are tested in a cell-based phospho-ERK ELISA using the following cell lines:
(§7) HCT116 human colorectal carcinoma (ATCC)
as §3
(§8) Cells are seeded in 96-well plates at 2,000 cells/well and after 24 h they are exposed to different concentrations of compounds in 0.83% DMSO. Cells are grown for a further 2 h or 24 h, fixed with formaldehyde (2% final) and permeabilised with methanol. Following blocking with TBST-3% BSA, fixed cells are incubated with primary antibody (anti-phospho ERK from rabbit) over-night at 4° C. Cells are incubated with Propidium Iodide (DNA fluorescent dye) and detection of cellular p-ERK is performed using an anti-rabbit secondary antibody conjugated to the fluorescent Alexa Fluor 488 dye (Molecular probes). The fluorescence is analysed using the Acumen Explorer (TTP Labtech), a laser-scanning microplate cytometer, and the Alexa Fluor 488 signal is normalised to the PI signal (proportional to cell number).
(§9) The EC50 is defined as the concentration at which a given compound achieves a signal half way between the baseline and the maximum response. EC50 values are calculated using the XLfit software package (version 2.0.5).

[3] = tested on: phospho-ERK in A375 human malignant melanoma; experiment: Phospho-ERK cell-based assay, A375; conditions: A-375, A375, 2 h or 24 h exposure, p-ERK signal normalised to PI, read-out: EC50 in the phospho-ERK cell-based assay, A375 cell line
Protocol: as §6, §2, §3, §8, §9

[4] = tested on: HCT116 human colorectal carcinoma; experiment: Cell proliferation assay, HCT116; type: cell-based; conditions: HCT-116, HCT116, 72h exposure, CellTiter-Glo, read-out: EC50 in the cell proliferation assay, HCT116 cell line
Protocol: as §1, §7, §3, §4, §5

| Compound | EC50 [1] | EC50 [2] | EC50 [3] | EC50 [4] |
| --- | --- | --- | --- | --- |
| CSc1ccc(Nc2c(C(=O)NOC[C@H](O)CO)ccc3cnsc23)c(F)c1 [Example 22, 7-(2-Fluoro-4-methylsulfanyl-phenylamino)-benzo[d]isothiazole-6-carboxylic acid ((R)-2,3-dihydroxy-propoxy)-amide] | < 0.1 µM | < 0.1 µM | < 0.1 µM | < 0.5 µM |
| O=C(NOCCO)c1ccc2cnsc2c1Nc1ccc(I)cc1F [Example 26, 7-(2-Fluoro-4-iodo-phenylamino)-benzo[d]isothiazole-6-carboxylic acid (2-hydroxy-ethoxy)-amide] | – | < 0.1 µM | < 0.1 µM | – |
| O=C(NOCCO)c1ccc2sncc2c1Nc1ccc(I)cc1F [Example 12, 4-(2-Fluoro-4-iodo-phenylamino)-benzo[d]isothiazole-5-carboxylic acid (2-hydroxy-ethoxy)-amide] | < 0.1 µM | < 0.1 µM | < 0.1 µM | < 0.5 µM |
| O=C(NOC[C@H](O)CO)c1ccc2cnsc2c1Nc1ccc(C2CC2)cc1F [Example 23, 7-(4-Cyclopropyl-2-fluoro-phenylamino)-benzo[d]isothiazole-6-carboxylic acid ((R)-2,3-dihydroxy-propoxy)-amide] | < 0.1 µM | – | < 0.1 µM | – |
| O=C(NOCCO)c1ccc2[nH]ncc2c1Nc1ccc(I)cc1F [Example 5, 4-(2-Fluoro-4-iodo-phenylamino)-1H-indazole-5-carboxylic acid (2-hydroxy-ethoxy)-amide] | < 0.1 µM | < 0.1 µM | – | < 0.5 µM |
| O=C(NOC[C@H](O)CO)c1ccc2[nH]ncc2c1Nc1ccc(I)cc1F [Example 9, 4-(2-Fluoro-4-iodophenylamino)-1H-indazole-5-carboxylic acid ((R)-2,3-dihydroxy-propoxy)-amide] | < 0.1 µM | < 0.1 µM | < 0.1 µM | < 0.5 µM |
| O=C(NOCC1CC1)c1ccc2[nH]ncc2c1Nc1ccc(I)cc1F [Example 16, 4-(2-Fluoro-4-iodo-phenylamino)-1H-indazole-5-carboxylic acid cyclopropylmethoxy-amide] | – | < 0.1 µM | – | – |
| O=C(NOCCO)c1cnc2[nH]ncc2c1Nc1ccc(I)cc1F [Example 6, 4-(2-Fluoro-4-iodophenylamino)-1H-pyrazolo[3,4-b]pyridine 5-carboxylic acid (2-hydroxyethoxy)-amide] | < 0.1 µM | < 0.1 µM | < 0.1 µM | < 0.5 µM |
| O=C(NOC[C@H](O)CO)c1ccc2sncc2c1Nc1ccc(I)cc1F [Example 21, 4-(2-Fluoro-4-iodo-phenylamino)-benzo[d]isothiazole-5-carboxylic acid ((R)-2,3-dihydroxy-propoxy)-amide] | < 0.1 µM | < 0.1 µM | < 0.1 µM | < 0.5 µM |
| O=C(NOC[C@H](O)CO)c1ccc2cnsc2c1Nc1ccc(Br)cc1F [Example 24, 7-(4-Bromo-2-fluoro-phenylamino)-benzo[d]isothiazole-6-carboxylic acid ((R)-2,3-dihydroxy-propoxy)-amide] | < 0.1 µM | < 0.1 µM | < 0.1 µM | < 0.5 µM |
| CC(C)(CO)ONC(=O)c1cnc2[nH]ncc2c1Nc1ccc(I)cc1F [Example 8, 4-(2-Fluoro-4-iodophenylamino)-1H-pyrazolo[3,4-b]pyridine-5-carboxylic acid (2-hydroxy-1,1-dimethylethoxy)-amide] | < 0.1 µM | < 0.1 µM | < 0.1 µM | < 0.6 µM |
| O=C(NOCCO)c1ccc2cnsc2c1Nc1ccc(Br)cc1F [Example 25, 7-(4-Bromo-2-fluoro-phenylamino)-benzo[d]isothiazole-6-carboxylic acid (2-hydroxy-ethoxy)-amide] | < 0.1 µM | < 0.1 µM | < 0.1 µM | < 0.5 µM |
| C[C@H](O)CONC(=O)c1ccc2[nH]ncc2c1Nc1ccc(Br)cc1F [Example 11, 4-(4-Bromo-2-fluoro-phenylamino)-1H-indazole-5-carboxylic acid ((S)-2-hydroxy-propoxy)-amide] | < 0.1 µM | < 0.1 µM | < 0.1 µM | < 0.5 µM |
| CONC(=O)c1ccc2[nH]ncc2c1Nc1ccc(I)cc1F [Example 17, 4-(2-Fluoro-4-iodo-phenylamino)-1H-indazole-5-carboxylic acid methoxy-amide] | < 0.1 µM | < 0.1 µM | < 0.1 µM | < 0.5 µM |
| C[C@H](O)CONC(=O)c1cnc2[nH]ncc2c1Nc1ccc(I)cc1F [Example 7, 4-(2-Fluoro-4-iodophenylamino)-1H-pyrazolo[3,4-b]pyridine 5-carboxylic acid ((S)-2-hydroxypropoxy)-amide] | < 0.1 µM | < 0.1 µM | < 0.1 µM | < 0.5 µM |
| O=C(NOCCO)c1ccc2[nH]ncc2c1Nc1ccc(Br)cc1F [Example 10, 4-(4-Bromo-2-fluoro-phenylamino)-1H-indazole-5-carboxylic acid (2-hydroxy-ethoxy)-amide] | < 0.1 µM | < 0.1 µM | < 0.1 µM | < 0.5 µM |
| C[C@H](O)CONC(=O)c1ccc2sncc2c1Nc1ccc(I)cc1F [Example 20, 4-(2-Fluoro-4-iodo-phenylamino)-benzo[d]isothiazole-5-carboxylic acid ((S)-2-hydroxy-propoxy)-amide] | < 0.1 µM | < 0.1 µM | < 0.1 µM | < 0.5 µM |
| O=C(NOC[C@H](O)CO)c1ccc2cnsc2c1Nc1ccc(I)cc1F [Example 27, 7-(2-Fluoro-4-iodo-phenylamino)-benzo[d]isothiazole-6-carboxylic acid ((R)-2,3-dihydroxy-propoxy)amide] | < 0.1 µM | < 0.1 µM | < 0.1 µM | < 0.5 µM |
| CCONC(=O)c1ccc2[nH]ncc2c1Nc1ccc(I)cc1F [Example 14, 4-(2-Fluoro-4-iodo-phenylamino)-1H-indazole-5-carboxylic acid ethoxy-amide] | < 0.1 µM | < 0.1 µM | < 0.1 µM | < 0.5 µM |
| CSc1ccc(Nc2c(C(=O)NOCCO)ccc3[nH]ncc23)c(F)c1 [Example 13, 4-(2-Fluoro-4-methylsulfanyl-phenylamino)-1H-indazole-5-carboxylic acid (2-hydroxy-ethoxy)-amide] | – | < 0.1 µM | – | < 0.5 µM |

— patent publication US8841462B2, “Bicyclic heterocycles as MEK kinase inhibitors” (priority 2008, dated 2014)
